The numbers were not newly measured in publication PMC11091968, “Degradation of the α-Carboxyl Terminus 11 Peptide: In Vivo and Ex Vivo Impacts of Time, Temperature, Inhibitors, and Gender in Rat” (ACS Pharmacology & Translational Science, 2024), which cites them from elsewhere.

One series deals with papain. As to conditions: against papain; 8 (Table S4); cited from earlier work. The text has this: (§1) page 5: S-5 Table S4. Protease and phosphatase inhibitor cocktail and their major targets. Abbreviations: AEBSF: 4-(2-aminoethyl) benzenesulfonyl fluoride hydrochloride; ATPase: adenosine 5′ -triphosphatase; E-64: L-trans-3-carboxyoxiran-2-carbonyl-L-leucylagmatine; IC 50: half maximal inhibitory concentration;; Ki: inhibitory constant; MW: molecular weight; N/A: not applicable; PP1 or 2A: protein ph osphatase 1 or 2A; PTP: protein tyrosine phosphatase; K293: human embryonic kidney cell line; HS596: human HS683 glioma cell line; SKN695: human SK-N-SH neuroblastoma cell line. Ingredient MW (Da ...

Another series concerns SKN695 cells. Particulars: tested on SKN695 cells (human SK-N-SH neuroblastoma cell line); ref 1-3 (Table S4); cited from earlier work.
Description: as §1

The test system of the next series is K293 cells. As to conditions: tested on K293 cells (human embryonic kidney cell line); ref 1-3 (Table S4); cited from earlier work.
Description: as §1

For the next series, the system named is HS596 cells. Particulars: tested on HS596 cells (human HS683 glioma cell line); ref 1-3 (Table S4); cited from earlier work.
Description: as §1

For series [1], the system named is serine/threonine protein phosphatases 2A. Particulars: against serine/threonine protein phosphatases 2A; 14 (Table S4); cited from earlier work.
Description: as §1

Series [2] concerns serine/threonine protein phosphatases. Particulars: against serine/threonine protein phosphatases; 14 (Table S4); cited from earlier work.
Description: as §1

The next series relates to phosphatidylserine. As to conditions: cited from earlier work.
Description: as §1

Series [3] has as its target lysosomal and prostatic acid phosphatases. Particulars: against lysosomal and prostatic acid phosphatases; 21 (Table S4); cited from earlier work.
Description: as §1

In a further series the target is trypsin. Particulars: against trypsin; 10 (Table S4); cited from earlier work.
Description: as §1

A further series deals with plasmin. As to conditions: against plasmin; 10 (Table S4); cited from earlier work.
Description: as §1

The target in another series is Aspartic proteases. Particulars: enzyme not given; 11 (Table S4); cited from earlier work.
Description: as §1

The next series concerns human cathepsin D. Also noted: method as in earlier work. Particulars: against human cathepsin D; 11 (Table S4); cited from earlier work. The text has this: page 5: S-5 Table S4. Protease and phosphatase inhibitor cocktail and their major targets. Abbreviations: AEBSF: 4-(2-aminoethyl) benzenesulfonyl fluoride hydrochloride; ATPase: adenosine 5′ -triphosphatase; E-64: L-trans-3-carboxyoxiran-2-carbonyl-L-leucylagmatine; IC 50: half maximal inhibitory concentration;; Ki: inhibitory constant; MW: molecular weight; N/A: not applicable; PP1 or 2A: protein ph osphatase 1 or 2A; PTP: protein tyrosine phosphatase; K293: human embryonic kidney cell line; HS596: human HS683 glioma cell line; SKN695: human SK-N-SH neuroblastoma cell line.

Counter-ions that a name gives are not always drawn.

`CC(C)C[C@H](NC(=O)[C@H]1O[C@@H]1C(=O)O)C(=O)NCCCCN=C(N)N` (relative stereo) [E-64, L-trans-3-carboxyoxiran-2-carbonyl-L-leucylagmatine]: at papain, the Ki was 0.009 µM. In the case of `NCCc1ccc(S(=O)(=O)F)cc1` [AEBSF, 4-(2-aminoethyl) benzenesulfonyl fluoride hydrochloride], the results for the IC50 in the series on SKN695 cells, with K293 cells and in the series on HS596 cells were 300 µM, 1000 µM and 300 µM, respectively. In the case of `C[C@@]12C(=O)OC(=O)[C@]1(C)[C@H]1CC[C@@H]2O1` [Cantharidin], the IC50 was 0.04 µM in series [1] and 0.47 µM in series [2].

Regarding `[Na+].[Na+].[Na+].[O]=[V]([O-])([O-])[O-]` [Sodium orthovanadate], in the series on phosphatidylserine, the half-maximal inhibitory concentration (IC50) was 100 µM. For the compound `O=C([O-])C(O)C(O)C(=O)[O-].[Na+].[Na+]` (stereo not drawn) [Sodium tartrate], the Ki in series [3] was 1 µM. Turning to Leupeptin, the Ki was 0.0035 µM at trypsin and 0.0034 µM on plasmin. As to Pepstatin A, the Ki at Aspartic proteases is 10 pM. In the series on human cathepsin D, the IC50 was 0.021 µM.

The Ki is a dissociation constant, usually derived from enzyme kinetics or from competition with a known ligand. The IC50 is the point on the concentration scale where inhibition reaches its midpoint.
